This assay has as its system Dengue-2 (Strain New Guinea C). Briefly: Viral yield assay against Dengue-2 in Vero cells. Format: cell-based, Dengue virus. To be noted: Dengue virus, read-out: Activity (EC50 class) against Dengue-2 Virus in Vero cells. An outline of the steps:
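Infect Vero cells with virus (MOI 0.1), add compound or DMSO, incubate at 37° C, collect progeny at 48 hours post infection, then titrate on Vero cells to obtain EC50.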

[1] abbreviates: Vero cells, MOI 0.1, harvested 48 hours post infection.

Where two headings read alike, the source gives them in different places.

Consider `COc1ccc(NC(=O)c2sc3nc4c(cc3c2N)CCCCC4)cc1` [Compound 118, 3-Amino-6,7,8,9-tetrahydro-5H-1-thia-10-aza-cyclohepta[f]indene-2-carboxylic acid (4-methoxy-phenyl)-amide], for which, under setting [1], the EC50 (usually the concentration needed to bring the measured effect to its halfway point) was above 25 µM.

Take `COc1ccc(NC(=O)c2sc3nc(-c4ccccc4)cc(C(F)(F)F)c3c2N)cc1` [Compound 119, 3-Amino-6-phenyl-4-trifluoromethyl-thieno[2,3-b]pyridine-2-carboxylic acid (4-methoxy-phenyl)-amide]: the EC50 under setting [1] was above 25 µM.

As for `CC(=O)c1ccc(NC(=O)c2sc3nc(C)cc(C)c3c2N)cc1` [Compound 120, 3-Amino-4,6-dimethyl-thieno[2,3-b]pyridine-2-carboxylic acid (4-acetyl-phenyl)-amide], the EC50 under setting [1] was above 25 µM.

For the compound `Cc1cc(C)c2c(N)c(C(=O)Nc3cccc4cccnc34)sc2n1` [Compound 121, 3-Amino-4,6-dimethyl-thieno[2,3-b]pyridine-2-carboxylic acid quinolin-8-ylamide], the EC50 under setting [1] was above 25 µM.

As for `Cc1cc(C)c2c(N)c(C(=O)NC34CC5CC(CC(C5)C3)C4)sc2n1` [Compound 122, 3-Amino-4,6-dimethyl-thieno[2,3-b]pyridine-2-carboxylic acid adamantan-1-ylamide], the EC50 under setting [1] was above 25 µM.

For the compound `Cc1cc(C(F)(F)F)c2c(N)c(C(=O)Nc3ccc(I)cc3C)sc2n1` [Compound 123, 3-Amino-6-methyl-4-trifluoromethyl-thieno[2,3-b]pyridine-2-carboxylic acid (4-iodo-2-methyl-phenyl)-amide], under setting [1], the EC50 is above 25 µM.

Turning to `COCc1cc(C)nc2sc(C(=O)Nc3ccccc3)c(N)c12` [Compound 124, 3-Amino-4-methoxymethyl-6-methyl-thieno[2,3-b]pyridine-2-carboxylic acid phenylamide], the EC50 under setting [1] is above 25 µM.

For `COc1ccc(-c2cc(-c3ccccc3)nc3sc(C(N)=O)c(N)c23)cc1` [Compound 125, 3-Amino-4-(4-methoxy-phenyl)-6-phenyl-thieno[2,3-b]pyridine-2-carboxylic acid amide], the EC50 under setting [1] was above 25 µM.

Regarding `COc1ccc(-c2cc(-c3ccccc3)nc3sc(C(=O)Nc4ccccc4)c(N)c23)cc1` [Compound 126, 3-Amino-4-(4-methoxy-phenyl)-6-phenyl-thieno[2,3-b]pyridine-2-carboxylic acid phenylamide], the EC50 under setting [1] was above 25 µM.

Turning to `Cc1cccc(C)c1NC(=O)c1sc2nc(N)c(C#N)cc2c1N` [Compound 127, 3,6-Diamino-5-cyano-thieno[2,3-b]pyridine-2-carboxylic acid (2,6-dimethyl-phenyl)-amide], the EC50 under setting [1] is above 25 µM.

As to `Cc1cc(C(F)(F)F)c2c(N)c(C(=O)Nc3cccc4ccccc34)sc2n1` [Compound 128, 3-Amino-6-methyl-4-trifluoromethyl-thieno[2,3-b]pyridine-2-carboxylic acid naphthalen-1-ylamide], the EC50 under setting [1] is above 25 µM.

For `N#Cc1cc2c(N)c(C(=O)Nc3ccc(Cl)c(Cl)c3)sc2nc1N` [Compound 129, 3,6-Diamino-5-cyano-thieno[2,3-b]pyridine-2-carboxylic acid (3,4-dichloro-phenyl)-amide], under setting [1], the EC50 is above 25 µM.

Turning to `N#Cc1cc2c(N)c(C(=O)Nc3ccccc3C(F)(F)F)sc2nc1N` [Compound 130, 3,6-Diamino-5-cyano-thieno[2,3-b]pyridine-2-carboxylic acid (2-trifluoromethyl-phenyl)-amide], the EC50 under setting [1] was above 25 µM.

As to `Cc1cc(C(F)(F)F)nc2sc(C(=O)Nc3ccccc3I)c(N)c12` [Compound 131, 3-Amino-4-methyl-6-trifluoromethyl-thieno[2,3-b]pyridine-2-carboxylic acid (2-iodo-phenyl)-amide], the EC50 under setting [1] is above 25 µM.

For `Cc1ccc(NC(=O)c2sc3nc(C)cc(C(F)(F)F)c3c2N)nc1` [Compound 132, 3-Amino-6-methyl-4-trifluoromethyl-thieno[2,3-b]pyridine-2-carboxylic acid (5-methyl-pyridin-2-yl)-amide], under setting [1], the EC50 was above 25 µM.

For the compound `COC(=O)c1ccccc1NC(=O)c1sc2nc(N)c(C#N)cc2c1N` [Compound 133, 2-[(3,6-Diamino-5-cyano-thieno[2,3-b]pyridine-2-carbonyl)-amino]-benzoic acid methyl ester], under setting [1], the EC50 was above 25 µM.

For the compound `N#Cc1cc2c(N)c(C(=O)Nc3ccccc3Br)sc2nc1N` [Compound 134, 3,6-Diamino-5-cyano-thieno[2,3-b]pyridine-2-carboxylic acid (2-bromo-phenyl)-amide], the EC50 (Vero, 48 h) is above 25 µM.

Turning to `N#Cc1cc2c(N)c(C(=O)Nc3ccccc3F)sc2nc1N` [Compound 135, 3,6-Diamino-5-cyano-thieno[2,3-b]pyridine-2-carboxylic acid (2-fluoro-phenyl)-amide], the EC50 under setting [1] was above 25 µM.

Turning to `N#Cc1cc2c(N)c(C(=O)Nc3ccc(S(N)(=O)=O)cc3)sc2nc1N` [Compound 136, 3,6-Diamino-5-cyano-thieno[2,3-b]pyridine-2-carboxylic acid (4-sulfamoyl-phenyl)-amide], under setting [1], the EC50 is above 25 µM.

Regarding `CCc1nnc(NC(=O)c2sc3nc(C)cc(COC)c3c2N)s1` [Compound 137, 3-Amino-4-methoxymethyl-6-methyl-thieno[2,3-b]pyridine-2-carboxylic acid (5-ethyl-[1,3,4]thiadiazol-2-yl)-amide], the EC50 under setting [1] was above 25 µM.

Consider `CCN(CC)C(=O)c1sc2nc3c(cc2c1N)CCC3` [Compound 138, 3-Amino-6,7-dihydro-5H-cyclopenta[b]thieno[3,2-e]pyridine-2-carboxylic acid diethylamide], for which, under “Vero, 48 h”, the EC50 was above 25 µM.

In the case of `Nc1c(C(=O)N2CCOCC2)sc2nc3c(cc12)CCCCC3` [Compound 139, (3-Amino-6,7,8,9-tetrahydro-5H-1-thia-10-aza-cyclohepta[f]inden-2-yl)-morpholin-4-yl-methanone], the EC50 (Vero, 48 h) was above 25 µM.

Consider `COCc1cc(C)nc2sc(C(=O)N(c3ccccc3)c3ccccc3)c(N)c12` [Compound 140, 3-Amino-4-methoxymethyl-6-methyl-thieno[2,3-b]pyridine-2-carboxylic acid diphenylamide], for which the EC50 (Vero, 48 h) is above 25 µM.

Turning to `COCc1cc(C)nc2sc(C(=O)Nc3ccc(C(C)=O)cc3)c(N)c12` [Compound 141, 3-Amino-4-methoxymethyl-6-methyl-thieno[2,3-b]pyridine-2-carboxylic acid (4-acetyl-phenyl)-amide], under setting [1], the EC50 is above 25 µM.

`CC(=O)c1cc2c(N)c(C(=O)NC34CC5CC(CC(C5)C3)C4)sc2nc1C` [Compound 142, 5-Acetyl-3-amino-6-methyl-thieno[2,3-b]pyridine-2-carboxylic acid adamantan-1-ylamide]: the EC50 under setting [1] is above 25 µM.

Regarding `Cc1cccc(NC(=O)c2sc3nc(N)c(C#N)c(-c4ccc(C(C)C)cc4)c3c2N)c1C` [Compound 143, 3,6-Diamino-5-cyano-4-(4-isopropyl-phenyl)-thieno[2,3-b]pyridine-2-carboxylic acid (2,3-dimethyl-phenyl)-amide], the EC50 under setting [1] is above 25 µM.

With `Nc1c(C(=O)Nc2ccc(S(N)(=O)=O)cc2)sc2nc3c(cc12)CCC3` [Compound 144, 3-Amino-6,7-dihydro-5H-cyclopenta[b]thieno[3,2-e]pyridine-2-carboxylic acid (4-sulfamoyl-phenyl)-amide], the EC50 under setting [1] is above 25 µM.

Regarding `Cc1cc(C)c2c(N)c(C(=O)N3CCOCC3)sc2n1` [Compound 145, (3-Amino-4,6-dimethyl-thieno[2,3-b]pyridin-2-yl)-morpholin-4-yl-methanone], under setting [1], the EC50 was above 25 µM.

In the case of `COCc1cc(C)nc2sc(C(=O)Nc3cc(Br)cc4cccnc34)c(N)c12` [Compound 146, 3-Amino-4-methoxymethyl-6-methyl-thieno[2,3-b]pyridine-2-carboxylic acid (6-bromo-quinolin-8-yl)-amide], the EC50 (Vero, 48 h) was above 25 µM.

For the compound `CCN1CCCC(NC(=O)c2sc3nc(C)cc(COC)c3c2N)C1` (stereo not shown) [Compound 147, 3-Amino-4-methoxymethyl-6-methyl-thieno[2,3-b]pyridine-2-carboxylic acid (1-ethyl-piperidin-3-yl)-amide], under setting [1], the concentration giving a half-maximal response (EC50) was above 25 µM.

Take `CCOC(=O)c1c(NC(=O)c2sc3nc(N)c(C#N)cc3c2N)sc2c1CCCC2` [Compound 148, 2-[(3,6-Diamino-5-cyano-thieno[2,3-b]pyridine-2-carbonyl)-amino]-4,5,6,7-tetrahydro-benzo[b]thiophene-3-carboxylic acid ethyl ester]: under setting [1], the EC50 was above 25 µM.

Take `Cc1cc(C(F)(F)F)c2c(N)c(C(=O)Nc3cccc(C(F)(F)F)c3)sc2n1` [Compound 149, 3-Amino-6-methyl-4-trifluoromethyl-thieno[2,3-b]pyridine-2-carboxylic acid (3-trifluoromethyl-phenyl)-amide]: the EC50 (Vero, 48 h) is above 25 µM.

Turning to `COCc1cc(C)nc2sc3c(=O)n(-c4cccc5ccccc45)nnc3c12` [Compound 150, 9-Methoxymethyl-7-methyl-3-naphthalen-1-yl-3H-pyrido[3′,2′:4,5]thieno[3,2-d][1,2,3]triazin-4-one], the EC50 (Vero, 48 h) was above 25 µM.

For `COCc1cc(C)nc2sc3c(=O)n(-c4ccc(C)cc4C)nnc3c12` [Compound 151, 3-(2,4-Dimethyl-phenyl)-9-methoxymethyl-7-methyl-3H-pyrido[3′,2′:4,5]thieno[3,2-d][1,2,3]triazin-4-one], under setting [1], the EC50 is above 25 µM.

For the compound `N#Cc1ccc(NC(=O)c2sc3nc(N)c(C#N)cc3c2N)cc1` [Compound 152, 3,6-Diamino-5-cyano-thieno[2,3-b]pyridine-2-carboxylic acid (4-cyano-phenyl)-amide], the EC50 under setting [1] is above 25 µM.

`Cc1cc(C)c2c(n1)sc1c(=O)[nH]c(C)nc12` [Compound 153, 2,7,9-Trimethyl-3H-pyrido[3′,2′:4,5]thieno[3,2-d]pyrimidin-4-one]: the EC50 under setting [1] is above 25 µM.

For `Cc1ccc2c(n1)sc1c(=O)[nH]c(C)nc12` [Compound 154, 2,7-Dimethyl-3H-pyrido[3′,2′:4,5]thieno[3,2-d]pyrimidin-4-one], the concentration for a half-maximal effect (EC50) under setting [1] is above 25 µM.

For the origin of these results see patent US20170121344A1 (Siga Technologies, Inc., priority 2009, published 2017).
